According to ChEMBL document CHEMBL1201862, “PubChem BioAssay data set” (2004):
Calls of active or inactive are those of the source.

What was measured:
[1] = target: Voltage-dependent T-type calcium channel subunit alpha-1H (Homo sapiens, UniProt O95180); format: functional;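 note: channel activity triggered by adding a high calcium stimulation buffer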
Prothrombin = Prothrombin (Homo sapiens, UniProt P00734); test: Thrombin 1536 HTS Dose Response Confirmation. [Related pubchem assays: 1046 (Thrombin 1536 HTS; hits were confirmed in this assay)]; format: functional
Bcl-2-related protein A1 = target: T1, Bcl-2-related protein A1 (Mus musculus, UniProt Q07440); format: functional;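 note: confirmatory dose–response counterscreen on Bfl-1, used to check hits from a UBC13 polyubiquitin inhibitor campaign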
T1 sequence (Q07440 whole entry): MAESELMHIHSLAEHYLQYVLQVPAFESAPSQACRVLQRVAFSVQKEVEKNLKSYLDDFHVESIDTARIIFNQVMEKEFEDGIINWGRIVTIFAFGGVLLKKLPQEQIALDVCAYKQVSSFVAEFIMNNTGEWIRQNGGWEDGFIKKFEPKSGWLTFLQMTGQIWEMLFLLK

[2] = target: T2, Ubiquitin-conjugating enzyme E2 N (Homo sapiens, UniProt P61088); format: functional
T2 sequence (P61088 whole entry): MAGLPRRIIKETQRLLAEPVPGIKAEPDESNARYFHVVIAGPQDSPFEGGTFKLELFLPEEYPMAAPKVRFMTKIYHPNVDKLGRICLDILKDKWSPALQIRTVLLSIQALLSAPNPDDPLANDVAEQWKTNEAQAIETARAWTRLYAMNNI

[3] = target: T2, Ubiquitin-conjugating enzyme E2 N; format: functional; remark: listed apart in the source
[4] = viability of HCT116 lacking mutant beta-catenin – cell-based, human colon tumor, dose response (AID 1045); format: functional;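 note: HCT116 colon tumor cells with beta catenin knocked out; cells exposed to compound for 60 hours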
[5] = viability loss in THP-1 monocytes – THP-1 cells, cytotoxicity control for Vif-APOBEC3G degradation inhibitor project, dose response (AID 1117359); format: functional; conditions: THP-1
[6] = viability of PTEN-deleted HCT116 cells – cell-based, HCT116 PTEN knockout, dose response (AID 1047); format: functional;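 note: HCT116 colon tumor cells with PTEN knocked out; cells exposed to compound for 60 hours before readout; potency for loss of cell viability measured by luminescence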
Protein RecA = target: T3, Protein RecA (Mycobacterium tuberculosis, UniProt P9WHJ3); test: Fluorescence Cell-Free Homogeneous Dose Retest to Identify Inhibitors of RecA-Intein Splicing Activity. [Related pubchem assays (depositor defined):AID2097, AID2223, AID489010, AID492950]; format: functional
T3 sequence (P9WHJ3 whole entry): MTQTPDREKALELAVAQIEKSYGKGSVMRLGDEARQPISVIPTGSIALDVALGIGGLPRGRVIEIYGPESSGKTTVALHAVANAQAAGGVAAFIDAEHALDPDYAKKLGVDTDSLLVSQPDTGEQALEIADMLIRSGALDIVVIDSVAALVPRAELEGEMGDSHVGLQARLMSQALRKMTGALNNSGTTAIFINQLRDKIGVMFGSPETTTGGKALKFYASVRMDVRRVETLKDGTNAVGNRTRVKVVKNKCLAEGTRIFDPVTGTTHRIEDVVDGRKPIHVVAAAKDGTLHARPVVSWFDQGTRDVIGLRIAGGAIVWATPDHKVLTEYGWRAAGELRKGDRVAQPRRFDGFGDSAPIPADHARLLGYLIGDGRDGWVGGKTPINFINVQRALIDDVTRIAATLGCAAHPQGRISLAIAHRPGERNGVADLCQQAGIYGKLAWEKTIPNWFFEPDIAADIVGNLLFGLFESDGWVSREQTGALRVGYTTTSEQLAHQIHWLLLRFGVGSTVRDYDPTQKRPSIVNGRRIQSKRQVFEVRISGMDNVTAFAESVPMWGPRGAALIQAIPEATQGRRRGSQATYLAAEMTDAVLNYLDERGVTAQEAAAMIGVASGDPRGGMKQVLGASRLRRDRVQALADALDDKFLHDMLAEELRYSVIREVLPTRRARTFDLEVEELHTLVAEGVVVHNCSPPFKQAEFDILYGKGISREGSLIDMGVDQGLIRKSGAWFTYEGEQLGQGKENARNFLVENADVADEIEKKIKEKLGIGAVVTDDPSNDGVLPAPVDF

[7] = Luminescence Cell-Based Dose Retest to Confirm Inhibitors of Cancer Stem Cells. [Related pubchem assays (depositor defined):AID2717, AID2721]; format: functional; conditions: Homo sapiens
Cytochrome P450 1A2 = target: T4, Cytochrome P450 1A2 (Homo sapiens, UniProt P05177);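 note: PubChem cytochrome P450 panel assay, CYP1A2 panel member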
T4 sequence (P05177 whole entry): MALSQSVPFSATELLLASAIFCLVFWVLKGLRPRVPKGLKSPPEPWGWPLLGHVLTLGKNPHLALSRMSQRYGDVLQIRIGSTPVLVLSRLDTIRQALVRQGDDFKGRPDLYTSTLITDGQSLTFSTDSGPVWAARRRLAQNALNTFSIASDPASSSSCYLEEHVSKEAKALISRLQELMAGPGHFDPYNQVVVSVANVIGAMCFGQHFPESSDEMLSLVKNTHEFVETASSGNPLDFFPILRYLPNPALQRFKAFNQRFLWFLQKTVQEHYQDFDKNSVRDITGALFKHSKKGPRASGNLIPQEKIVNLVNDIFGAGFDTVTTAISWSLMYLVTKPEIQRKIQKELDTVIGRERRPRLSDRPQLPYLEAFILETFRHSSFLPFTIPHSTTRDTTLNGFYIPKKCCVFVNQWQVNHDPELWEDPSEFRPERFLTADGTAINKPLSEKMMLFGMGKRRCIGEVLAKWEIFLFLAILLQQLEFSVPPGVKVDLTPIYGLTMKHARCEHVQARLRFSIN

Cytochrome P450 2D6 = Cytochrome P450 2D6 (Homo sapiens, UniProt P10635);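 note: CYP2D6 member of a cytochrome P450 panel assay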
[8] = target: T5, Replicative DNA helicase DnaB (Mycobacterium tuberculosis, UniProt P9WMR3); test: DnaB intein splicing inhibitors, dose response, biochemical, cell-free fluorescence (AID 449749); format: functional
T5 sequence (P9WMR3 whole entry): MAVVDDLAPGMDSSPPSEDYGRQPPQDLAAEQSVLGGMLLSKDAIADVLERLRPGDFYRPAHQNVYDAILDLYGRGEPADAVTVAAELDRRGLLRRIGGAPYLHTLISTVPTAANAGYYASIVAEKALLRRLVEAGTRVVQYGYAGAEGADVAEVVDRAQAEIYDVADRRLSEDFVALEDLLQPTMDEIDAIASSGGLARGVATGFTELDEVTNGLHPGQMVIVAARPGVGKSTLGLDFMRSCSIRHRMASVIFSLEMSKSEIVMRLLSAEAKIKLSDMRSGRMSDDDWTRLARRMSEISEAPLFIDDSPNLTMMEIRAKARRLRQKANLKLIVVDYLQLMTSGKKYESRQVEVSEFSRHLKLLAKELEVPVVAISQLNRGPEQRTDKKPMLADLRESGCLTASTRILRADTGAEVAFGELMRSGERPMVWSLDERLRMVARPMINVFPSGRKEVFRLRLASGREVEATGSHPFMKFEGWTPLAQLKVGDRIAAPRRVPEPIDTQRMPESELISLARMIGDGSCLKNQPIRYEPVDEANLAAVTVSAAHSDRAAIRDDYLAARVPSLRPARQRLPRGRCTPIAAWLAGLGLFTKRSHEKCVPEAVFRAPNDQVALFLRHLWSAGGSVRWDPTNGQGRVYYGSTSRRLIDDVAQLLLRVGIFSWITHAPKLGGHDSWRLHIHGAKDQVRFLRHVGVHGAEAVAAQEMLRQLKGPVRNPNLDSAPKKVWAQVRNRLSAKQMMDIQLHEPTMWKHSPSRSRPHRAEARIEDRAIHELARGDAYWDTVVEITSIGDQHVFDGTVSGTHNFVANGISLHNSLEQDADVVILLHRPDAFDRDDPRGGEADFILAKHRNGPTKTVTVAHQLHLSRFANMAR

cells = format: functional, cell-based; conditions: HEK-CNG
Galanin receptor type 3 = target: T6, Galanin receptor type 3 (Homo sapiens, UniProt O60755); test: Fluorescence-based cell-based primary high throughput dose response assay to identify antagonists of the Galanin Receptor 3 (GalR3).; format: functional
T6 sequence (O60755 whole entry): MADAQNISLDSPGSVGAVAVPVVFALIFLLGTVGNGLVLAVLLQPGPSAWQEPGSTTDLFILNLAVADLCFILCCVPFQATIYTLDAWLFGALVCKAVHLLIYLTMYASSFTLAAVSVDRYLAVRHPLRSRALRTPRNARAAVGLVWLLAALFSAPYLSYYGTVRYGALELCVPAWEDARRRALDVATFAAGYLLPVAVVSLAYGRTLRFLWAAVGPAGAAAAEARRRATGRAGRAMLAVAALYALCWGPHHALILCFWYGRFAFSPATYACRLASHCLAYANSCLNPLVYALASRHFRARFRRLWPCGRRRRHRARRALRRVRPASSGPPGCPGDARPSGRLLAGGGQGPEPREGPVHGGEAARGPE

[9] = HEK-293T viability loss after treatment – luminescence, T-cell screen hits, cytotoxicity control for TCR NF-kB inhibitor project, dose response (AID 489026); format: functional, cell-based;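 note: cells exposed to compound about 14 hours before the viability readout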
[10] = NIH3T3 cell viability loss – ATP luminescence, mouse fibroblasts, counter-screen, dose response (AID 2010); format: functional, cell-based;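 note: cells exposed to compound for about 90 hours before reading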
[11] = Trypanosoma cruzi growth suppression in host cells – NIH3T3 host cells, beta-gal luminescence, confirmation (AID 2044); format: functional, cell-based;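 note: intracellular parasites grown in NIH/3T3 mouse fibroblasts as host cells; luminescent beta-galactosidase reporter signal from transgenic T. cruzi replicating inside host cells; inhibitors lower the luminescence signal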
INS1 = test: INS-1E survival protection against cytokine death – cell-based, luminescence, retest, dose response (AID 449756); format: functional; conditions: Rattus norvegicus;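 note: cell death triggered by IL-1 beta plus TNF-alpha plus IFN-gamma mixture; protective hits raise ATP signal compared with cytokine alone wells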
Streptococcus = test: GAS UMAA2166 growth inhibition – luminescence, BacTiterGlo, counter-screen for streptokinase expression inhibitor project, dose response (AID 1915); format: functional, organism-based;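 note: potency for reduction of bacterial viability or growth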
[12] = test system: Streptococcus sp. 'group A'; test: Streptococcus pyogenes SK(-)GAS viability under kanamycin – luminescence, BacTiterGlo, confirmation, counter-screen for streptokinase expression inhibitor project, dose response (AID 1900); format: functional, organism-based

Sequence of Voltage-dependent T-type calcium channel subunit alpha-1H (O95180 whole entry): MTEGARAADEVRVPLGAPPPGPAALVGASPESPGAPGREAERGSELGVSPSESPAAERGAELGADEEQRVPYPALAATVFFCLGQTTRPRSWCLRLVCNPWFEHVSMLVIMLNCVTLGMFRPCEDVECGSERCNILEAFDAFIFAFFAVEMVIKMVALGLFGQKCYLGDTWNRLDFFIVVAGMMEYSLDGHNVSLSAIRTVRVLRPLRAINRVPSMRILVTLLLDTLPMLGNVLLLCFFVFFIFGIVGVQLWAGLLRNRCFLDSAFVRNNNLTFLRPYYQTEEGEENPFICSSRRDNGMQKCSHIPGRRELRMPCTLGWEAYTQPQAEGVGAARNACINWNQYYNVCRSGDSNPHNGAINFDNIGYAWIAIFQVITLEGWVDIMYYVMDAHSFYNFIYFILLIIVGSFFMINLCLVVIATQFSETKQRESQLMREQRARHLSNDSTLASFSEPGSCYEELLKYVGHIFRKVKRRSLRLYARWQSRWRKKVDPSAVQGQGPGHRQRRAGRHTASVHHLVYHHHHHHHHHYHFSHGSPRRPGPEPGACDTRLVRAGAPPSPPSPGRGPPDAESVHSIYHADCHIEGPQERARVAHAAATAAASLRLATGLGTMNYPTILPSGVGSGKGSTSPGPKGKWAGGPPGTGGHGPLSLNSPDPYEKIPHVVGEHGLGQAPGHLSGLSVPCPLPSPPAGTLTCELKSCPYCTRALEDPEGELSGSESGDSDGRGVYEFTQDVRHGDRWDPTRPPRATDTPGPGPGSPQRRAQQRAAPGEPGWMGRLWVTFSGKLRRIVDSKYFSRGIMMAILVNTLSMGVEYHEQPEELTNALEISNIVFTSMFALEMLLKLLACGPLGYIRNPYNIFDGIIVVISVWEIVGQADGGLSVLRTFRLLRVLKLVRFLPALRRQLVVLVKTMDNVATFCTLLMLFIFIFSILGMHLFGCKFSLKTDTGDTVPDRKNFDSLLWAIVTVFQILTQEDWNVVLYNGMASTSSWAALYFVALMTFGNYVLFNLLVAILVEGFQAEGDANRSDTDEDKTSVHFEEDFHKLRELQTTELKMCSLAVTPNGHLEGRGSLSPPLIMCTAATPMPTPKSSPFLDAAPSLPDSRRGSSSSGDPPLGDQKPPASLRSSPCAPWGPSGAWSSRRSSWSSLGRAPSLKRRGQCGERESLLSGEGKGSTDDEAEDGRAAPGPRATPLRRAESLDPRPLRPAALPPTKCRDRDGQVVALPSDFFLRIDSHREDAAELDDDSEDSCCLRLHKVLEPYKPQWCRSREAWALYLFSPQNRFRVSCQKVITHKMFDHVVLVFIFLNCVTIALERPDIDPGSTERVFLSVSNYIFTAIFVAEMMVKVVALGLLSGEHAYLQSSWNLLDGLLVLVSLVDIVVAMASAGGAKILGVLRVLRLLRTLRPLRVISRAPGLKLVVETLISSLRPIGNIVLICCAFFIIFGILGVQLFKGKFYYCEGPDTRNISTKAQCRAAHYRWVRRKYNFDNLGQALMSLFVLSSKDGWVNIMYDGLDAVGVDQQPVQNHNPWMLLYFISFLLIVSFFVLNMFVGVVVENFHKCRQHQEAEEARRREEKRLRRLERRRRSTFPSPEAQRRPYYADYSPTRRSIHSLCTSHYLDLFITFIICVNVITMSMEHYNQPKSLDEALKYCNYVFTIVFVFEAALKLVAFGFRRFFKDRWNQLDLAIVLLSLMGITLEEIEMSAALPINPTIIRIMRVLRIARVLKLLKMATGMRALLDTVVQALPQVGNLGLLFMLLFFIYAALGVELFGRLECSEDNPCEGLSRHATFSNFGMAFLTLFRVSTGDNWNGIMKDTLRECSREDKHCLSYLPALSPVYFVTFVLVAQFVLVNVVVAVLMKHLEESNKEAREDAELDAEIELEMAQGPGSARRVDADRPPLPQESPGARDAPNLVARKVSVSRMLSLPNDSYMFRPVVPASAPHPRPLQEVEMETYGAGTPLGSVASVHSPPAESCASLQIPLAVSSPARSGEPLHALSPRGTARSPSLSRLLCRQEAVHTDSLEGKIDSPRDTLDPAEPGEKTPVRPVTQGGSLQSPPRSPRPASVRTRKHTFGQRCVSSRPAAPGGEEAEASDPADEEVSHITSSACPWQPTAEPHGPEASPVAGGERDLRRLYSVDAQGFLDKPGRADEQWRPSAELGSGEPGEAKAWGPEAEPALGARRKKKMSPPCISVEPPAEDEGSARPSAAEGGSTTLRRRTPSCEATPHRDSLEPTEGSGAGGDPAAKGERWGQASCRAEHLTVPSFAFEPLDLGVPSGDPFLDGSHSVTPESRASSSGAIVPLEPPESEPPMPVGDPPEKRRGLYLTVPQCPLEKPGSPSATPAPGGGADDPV
Sequence of Cytochrome P450 2D6 (P10635 whole entry): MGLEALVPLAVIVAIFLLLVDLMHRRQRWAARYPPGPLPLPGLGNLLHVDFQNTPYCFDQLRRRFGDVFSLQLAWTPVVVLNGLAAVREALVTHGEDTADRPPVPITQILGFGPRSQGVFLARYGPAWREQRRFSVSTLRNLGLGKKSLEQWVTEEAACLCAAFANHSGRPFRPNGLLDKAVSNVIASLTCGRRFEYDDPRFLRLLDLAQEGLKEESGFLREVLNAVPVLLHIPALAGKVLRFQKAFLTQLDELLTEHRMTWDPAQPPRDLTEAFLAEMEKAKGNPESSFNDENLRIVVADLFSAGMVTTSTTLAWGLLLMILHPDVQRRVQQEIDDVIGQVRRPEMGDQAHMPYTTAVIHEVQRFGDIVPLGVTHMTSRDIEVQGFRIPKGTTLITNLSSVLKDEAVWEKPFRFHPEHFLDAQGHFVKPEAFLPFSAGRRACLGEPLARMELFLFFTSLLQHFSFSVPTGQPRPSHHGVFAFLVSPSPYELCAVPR

Compound: Cc1ccccc1NC(=O)c1ccc(CN2CCC(Cc3ccccc3)CC2)cc1
- EC50 [1]: 0.134 µM (active)

Compound: O=C(O)C1CCN(c2ccc(Cl)nn2)CC1
- IC50 (Prothrombin): > 50 µM (not active)

Compound: CN(CCNC(=O)C1CCN(c2ncnc3c2nc2n3CCCCC2)CC1)Cc1ccccc1
- IC50 (Bcl-2-related protein A1): > 20 µM (inactive)
- IC50 [2]: 2.98 µM (active)
- IC50 [3]: 3.44 µM (active)

Compound: COc1ccccc1NC(=O)CSc1nnc(-c2ccoc2C)n1CCc1ccccc1
- IC50 (Bcl-2-related protein A1): > 20 µM (inactive)
- IC50 [2]: 8.82 µM (active)
- IC50 [3]: 9.91 µM (active)

Compound: CCOC(=O)C(C)Sc1cc(CS(=O)(=O)c2ccccc2)nc(-c2ccccc2)n1 (stereo not given)
- EC50 [1]: 8.17 µM (active)

Compound: COc1ccc(-c2nc(C#N)c(NCc3ccccc3Cl)o2)cc1OC
- EC50 [4]: 29.1 µM (active)
- CC50 [5]: > 40 µM (active)
- EC50 [6]: 25.1 µM (active)

Compound: Nc1nc2ccccc2n1C(=O)c1ccco1
- IC50 (Prothrombin): > 50 µM (not active)

Compound: O=C(Nc1nc(-c2cccs2)cs1)c1ccc(S(=O)(=O)N2CCCCC2)cc1
- EC50 [1]: 3.4 µM (active)

Compound: CCCOc1ccc(C(=O)Nn2c(C)nc3ccccc3c2=O)cc1
- IC50 (Bcl-2-related protein A1): > 20 µM (inactive)
- IC50 [2]: 1.32 µM (active)
- IC50 [3]: 1.54 µM (active)

Compound: COC(=O)c1ccc(C(=O)NC(=S)Nc2ccc3nc(SC)sc3c2)cc1
- EC50 [4]: 5.03 µM (active)
- EC50 [6]: 5.26 µM (active)

Compound: O=C(Nc1ccc(F)cc1F)c1ccc(-n2cncn2)nc1
- IC50 (Prothrombin): > 50 µM (not active)

Compound: CC(=O)Oc1ccc2ccccc2c1C(NC(=O)Cc1ccccc1)c1ccc(Cl)cc1 (stereo not given)
- EC50 [4]: 21.1 µM (active)
- EC50 (Protein RecA): 31.6 µM (active)
- AC50 [7]: 3.12 µM (active)
- AC50 (Cytochrome P450 1A2): 6.31 µM (inconclusive)
- AC50 (Cytochrome P450 2D6): 11.2 µM (inconclusive)
- EC50 [6]: 18.6 µM (active)
- AC50 [8]: 3.27 µM (active)

Compound: Cc1ccc2[nH]c(SCCCCOc3ccccc3)nc2c1
- EC50 [1]: 2.25 µM (active)

Compound: CCOC(=O)c1c(NC(=O)COc2ccccc2C#N)sc2c1CC(C)(C)NC2(C)C
- IC50 (Bcl-2-related protein A1): > 20 µM (inactive)
- IC50 [2]: 4.91 µM (active)
- IC50 [3]: 5.94 µM (active)

Compound: COc1ccccc1NC(=O)c1sc2ncn(Cc3ccc(C)cc3)c(=O)c2c1C
- IC50 (Prothrombin): > 50 µM (not active)

Compound: Cn1c(CNc2cccc(Cl)c2)nnc1SCC(=O)OC1CCCCC1
- EC50 [1]: 2.53 µM (active)

Compound: Cc1ccc(Oc2nnc(-c3ccccc3)c3ccccc23)cc1
- EC50 [4]: 75.9 µM (active)
- EC50 [6]: 75.7 µM (active)

Compound: CC(C)(C)c1ccc(C(=O)Nc2ccc(Oc3cccnc3)nc2)cc1
- EC50 (cells): > 29.9 µM (inactive)
- IC50 (Galanin receptor type 3): 1.33 µM (active)
- IC50 [9]: 50.1 µM (inactive)

Compound: COc1ccc(-c2ccc(CCC(=O)O)n2-c2ccccc2O)cc1
- IC50 (Prothrombin): 10.5 µM (active)

Compound: CC(C)N=C(S)N=Nc1c(O)[nH]c2ccc(C(C)C)cc12
- EC50 [10]: 11 µM (active)
- EC50 [11]: 2.06 µM (active)
- IC50 (Bcl-2-related protein A1): > 20 µM (inactive)
- IC50 [2]: 3.56 µM (active)
- IC50 [3]: 19.2 µM (active)

Compound: Clc1ccc2c(N/N=C/c3cccc(Br)c3)ccnc2c1
- EC50 [4]: 4.89 µM (active)
- AC50 (INS1): 7.17 µM (active)
- AC50 [7]: 5.63 µM (active)
- EC50 (Streptococcus): 4.4 µM (active)
- EC50 [12]: 3.24 µM (active)
- EC50 [6]: 4.59 µM (active)
